Series [1] can be described thus: in vitro. Conditions: human, hela cells, % viability.
For series [2], the system named is T1, C. trachomatis L2/434/Bu expressing GFP (CTL2-GFP).
T1 construct: L2/434/Bu GFP intracellular growth in HeLa cells
Nature of the series: microbe, parasite or virus in culture. Also on record: C. trachomatis total inclusion area by high-content imaging, normalised to DMSO. The settings on record: Chlamydia trachomatis, HeLa, 28.5 h; total inclusion area; read-out: % of control remaining. The method in brief:
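Screening measures GFP fluorescence from the reporter strain and resorufin fluorescence for host viability, with Hoechst-based imaging of fixed cells adding inclusion area, inclusion number and nuclei count per well.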

Series [3] can be described thus: in vitro. Also on record: Viability of infected HeLa host cells, resazurin conversion, bulk resorufin fluorescence relative to DMSO. Conditions: human, hela cells; bulk resorufin, mean of 2.
For series [4], the system named is T2, CTL2-GFP (C. trachomatis L2/434/Bu, GFP-expressing).
T2 construct: L2/434/Bu, GFP-expressing
The experiment in a line: microbe, parasite or virus in culture. On the set-up: Intracellular C. trachomatis growth in HeLa cells, bulk GFP fluorescence relative to DMSO. The settings on record: Chlamydia trachomatis, HeLa, 28.5 h; bulk GFP, mean of 2; read-out: % of control remaining. Here is the method:
MICs were calculated as described above.

In the case of `Fc1cc(Br)c(CNCc2ncc[nH]2)c(N2CCCCC2)c1F` [CBK304243], the viability at 28.5 h, 10 µM in “in vitro [1]” is 99.2%. For the same compound, in series [2], the activity at 1 µM turned out to be 105%, the activity at 5 µM was 30.4% and the activity at 10 µM was 7.47%. In addition, in “in vitro [3]”, the viability at 28.5 h, 1 µM was 96.3%; the viability at 28.5 h, 5 µM was 88.7%; the viability at 28.5 h, 10 µM came to 89.7%. Also, in series [4], the activity at 1 µM amounted to 128%, the activity at 5 µM worked out at 39.3% and the activity at 10 µM was found to be 16.8%.

Regarding `CC(C)(CNS(=O)(=O)c1ccc(F)cc1)CNS(=O)(=O)c1ccc(F)cc1` [CBK265455], the viability at 28.5 h, 10 µM in “in vitro [1]” was 111%. In series [2], the activity at 1 µM turned out to be 80.8%, the activity at 5 µM was 21.4% and the activity at 10 µM was 1.74%. For the same compound, in “in vitro [3]”, the viability at 28.5 h, 1 µM amounted to 112%; the viability at 28.5 h, 5 µM is 111%; the viability at 28.5 h, 10 µM came out at 116%. Moreover, in series [4], the activity at 1 µM came to 79.4%, the activity at 5 µM stood at 13.3% and the activity at 10 µM was 0%.

Turning to `CC(N)C(=O)NC1CCN(c2nc3c(cc2F)c(=O)c(C(=O)O)cn3C23CC(C2)C3)C1` (stereo not shown) [CBK016632], the viability at 28.5 h, 10 µM in “in vitro [1]” stood at 80.5%. Besides, in series [2], the activity at 1 µM turned out to be 11.5%, the activity at 5 µM was 1.17% and the activity at 10 µM was determined as 0.494%. In addition, in “in vitro [3]”, the viability at 28.5 h, 1 µM is 90.2%; the viability at 28.5 h, 5 µM was found to be 89.5%; the viability at 28.5 h, 10 µM was found to be 87%. Moreover, in series [4], the activity at 1 µM was found to be 15.3%, the activity at 5 µM was determined as 3.24% and the activity at 10 µM worked out at 7.52%.

As to `COc1ccc2[nH]cc(CCNC(=O)c3ccc([N+](=O)[O-])c(C)c3)c2c1` [CBK269426], in the series “in vitro [1]”, the viability at 28.5 h, 10 µM was 100%. For the same compound, in series [2], the activity at 1 µM was 140%, the activity at 5 µM stood at 55.8% and the activity at 10 µM stood at 21.5%. In “in vitro [3]”, the viability at 28.5 h, 1 µM is 85.4%; the viability at 28.5 h, 5 µM amounted to 90.5%; the viability at 28.5 h, 10 µM was determined as 84.5%. In series [4], the activity at 1 µM was 149%, the activity at 5 µM was found to be 100% and the activity at 10 µM came to 62.1%.

`Nc1ncc(-c2ccc(C(=O)N3CCOCC3)cc2)cc1C(=O)NCc1ccc(Cl)c(Cl)c1` [CBK158570]: in “in vitro [1]”, the viability at 28.5 h, 10 µM came to 109%. In series [2], the activity at 1 µM came out at 87.8%, the activity at 5 µM worked out at 108% and the activity at 10 µM was 65.8%. Also, in the series “in vitro [3]”, the viability at 28.5 h, 1 µM was 91.9%; the viability at 28.5 h, 5 µM amounted to 93.3%; the viability at 28.5 h, 10 µM stood at 93.8%. For the same compound, in series [4], the activity at 1 µM was 97.9%, the activity at 5 µM came to 89.9% and the activity at 10 µM came out at 72%.

Take `C/C(=N\Nc1nnc2c(n1)[nH]c1ccccc12)c1ccccn1` [CBK262054]: in “in vitro [1]”, the viability at 28.5 h, 10 µM is 94.5%. Moreover, in series [2], the activity at 1 µM turned out to be 18.7%, the activity at 5 µM stood at 2.45% and the activity at 10 µM came out at 1.6%. Also, in “in vitro [3]”, the viability at 28.5 h, 1 µM turned out to be 87.3%; the viability at 28.5 h, 5 µM turned out to be 69.7%; the viability at 28.5 h, 10 µM worked out at 70.2%. In addition, in series [4], the activity at 1 µM amounted to 18%, the activity at 5 µM was 12.2% and the activity at 10 µM amounted to 10.5%.

As for `c1ccc(-c2nnc3ccccc3c2N2CCNCC2)cc1` [CBK066888], in the series “in vitro [1]”, the viability at 28.5 h, 10 µM is 107%. Also, in series [2], the activity at 1 µM was determined as 97.7%, the activity at 5 µM turned out to be 46% and the activity at 10 µM stood at 0.17%. Also, in “in vitro [3]”, the viability at 28.5 h, 1 µM turned out to be 114%; the viability at 28.5 h, 5 µM was found to be 106%; the viability at 28.5 h, 10 µM was 105%. For the same compound, in series [4], the activity at 1 µM was found to be 125%, the activity at 5 µM was 82.9% and the activity at 10 µM stood at 27.1%.

With `Cc1ccc(NC(=O)N(Cc2ccc(-c3ccccc3)cc2)CC(C)(C)CN)c(C)c1` [CBK002428C], the viability at 28.5 h, 10 µM in the series “in vitro [1]” was determined as 94.9%. Moreover, in series [2], the activity at 1 µM turned out to be 115%, the activity at 5 µM was 68.5% and the activity at 10 µM came out at 10.7%. Moreover, in the series “in vitro [3]”, the viability at 28.5 h, 1 µM is 90.2%; the viability at 28.5 h, 5 µM came out at 88.8%; the viability at 28.5 h, 10 µM stood at 86.4%. Moreover, in series [4], the activity at 1 µM was found to be 126%, the activity at 5 µM stood at 87.3% and the activity at 10 µM was determined as 46.1%.

On to `Cc1c(C(=O)Nc2ccc(Cl)cc2)sc2c1C(c1cccnc1)CC(=O)N2` (stereo not shown) [CBK288233], for which the viability at 28.5 h, 10 µM in the series “in vitro [1]” came out at 87.1%. In addition, in series [2], the activity at 1 µM turned out to be 100%, the activity at 5 µM came to 56.2% and the activity at 10 µM turned out to be 44.9%. In addition, in “in vitro [3]”, the viability at 28.5 h, 1 µM came to 101%; the viability at 28.5 h, 5 µM came out at 98.8%; the viability at 28.5 h, 10 µM worked out at 97.1%. Also, in series [4], the activity at 1 µM amounted to 99.5%, the activity at 5 µM is 55.5% and the activity at 10 µM was 83.6%.

For `CCc1cc(Br)ccc1S(=O)(=O)NC(CC)COC` (stereo not shown) [CBK045265], the viability at 28.5 h, 10 µM in “in vitro [1]” was 88.1%. In series [2], the activity at 1 µM turned out to be 117%, the activity at 5 µM is 106% and the activity at 10 µM was 97.7%. In addition, in the series “in vitro [3]”, the viability at 28.5 h, 1 µM was 100%; the viability at 28.5 h, 5 µM was 99%; the viability at 28.5 h, 10 µM was determined as 96.5%. For the same compound, in series [4], the activity at 1 µM was 138%, the activity at 5 µM stood at 114% and the activity at 10 µM turned out to be 140%.

With `O=S(=O)(Nc1nccs1)c1ccc(Nc2ncnc3ccccc23)cc1` [CBK269487C], the viability at 28.5 h, 10 µM in the series “in vitro [1]” came out at 93.8%. Further, in series [2], the activity at 1 µM amounted to 140%, the activity at 5 µM is 53.6% and the activity at 10 µM amounted to 28.6%. In “in vitro [3]”, the viability at 28.5 h, 1 µM turned out to be 93.3%; the viability at 28.5 h, 5 µM was 99%; the viability at 28.5 h, 10 µM stood at 86.3%. For the same compound, in series [4], the activity at 1 µM was determined as 141%, the activity at 5 µM worked out at 72.9% and the activity at 10 µM came out at 35%.

As for `O=C(Nc1nccs1)c1cc(C2CCN(C(=O)CC3CCCCC3)C2)nc2ccccc12` (stereo not shown) [CBK285586], the viability at 28.5 h, 10 µM in “in vitro [1]” was 116%. Moreover, in series [2], the activity at 1 µM came to 115%, the activity at 5 µM amounted to 119% and the activity at 10 µM was 48.9%. In the series “in vitro [3]”, the viability at 28.5 h, 1 µM was 92.6%; the viability at 28.5 h, 5 µM was 93%; the viability at 28.5 h, 10 µM came out at 93.3%. Besides, in series [4], the activity at 1 µM was 134%, the activity at 5 µM was determined as 122% and the activity at 10 µM is 35.7%.

In the case of `Cc1cc(NS(=O)(=O)c2ccc(NC(=O)CCCOc3ccc(Cl)cc3Cl)cc2)no1` [CBK297145], the viability at 28.5 h, 10 µM in “in vitro [1]” amounted to 103%. Moreover, in series [2], the activity at 1 µM was determined as 125%, the activity at 5 µM worked out at 84.3% and the activity at 10 µM was 56.5%. Further, in “in vitro [3]”, the viability at 28.5 h, 1 µM was found to be 85.1%; the viability at 28.5 h, 5 µM was found to be 93.5%; the viability at 28.5 h, 10 µM stood at 89.4%. For the same compound, in series [4], the activity at 1 µM was determined as 128%, the activity at 5 µM stood at 62.6% and the activity at 10 µM stood at 39.3%.

Broadly, the viability is a read-out of living cells in per cent, often relative to untreated cells.

Values taken from paper PMC12040169 (PLOS Biology, 2025).
